The test system of test [1] is AsPC-1 (G12D). Put plainly: In vitro cell proliferation inhibition test (CellTiter-Glo Luminescent Cell Viability Assay). The test is classed as cell-based. The settings on record: AsPC-1 cell line, Pancreas, KRAS (p.G12D); cells and compounds co-incubated 72 hours. In outline: (§1)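 Cells were seeded at 1000-5000/well and cultured overnight, then exposed to compound (top final 10 µM, ten 3-fold dilutions) for 72 h at 37°C, 5% CO2. Viability was read by CellTiter-Glo luminescence; IC50 was obtained from four-parameter fits of normalized signal.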

For test [2], the system named is SW480 (G12V). The test is described as above. The class given is cell-based. The conditions noted are these: SW480 cell line, Large intestine; Colon, KRAS (p.G12V); cells and compounds co-incubated 72 hours. A digest of the protocol: as §1

The values below come from EP4582426A1, “PAN-KRAS INHIBITOR COMPOUND” (Adlai Nortye Biopharma Co., Ltd., priority 2022, dated 2024).

As a reminder, the IC50 is the concentration that gives 50% inhibition. Consider “(1S,2S)-N-((6^3S,4S,Z)-1^2-(5-(3-(1,1-dioxidothiomorpholino)prop-1-yn-1-yl)-2-((S)-1-methoxyethyl)pyridin-3-yl)-1^1-ethyl-10,10-dimethyl-5,7-dioxo-6^1,6^2,6^3,6^4,6^5,6^6-hexahydro-1^1H-8-oxa-2(4,2)-thiazola-1(5,3)-indola-6(1,3)-pyridazinacycloundecaphane-4-yl)-2-methylcyclopropane-1-carboxamide [Example 43]”, for which the IC50 in test [1] amounted to 0.42 nM; in test [2], 0.68 nM.

As to “(1S,2S)-N-((6^3S,4S,Z)-1^2-(5-(3-(dimethylamino)prop-1-yn-1-yl)-2-((S)-1-methoxyethyl)pyridin-3-yl)-1^1-ethyl-10,10-dimethyl-5,7-dioxo-6^1,6^2,6^3,6^4,6^5,6^6-hexahydro-1^1H-8-oxa-2(4,2)-thiazola-1(5,3)-indola-6(1,3)-pyridazinacycloundecaphane-4-yl)-2-methylcyclopropane-1-carboxamide [Example 61]”, the IC50 in test [1] is 5 nM; in test [2] it was 1.58 nM.

Take “(1S,2S)-N-((63S,4S,Z)-1^1-ethyl-1^2-(2-((S)-1-methoxyethyl)-5-((1-methylpiperidin-4-yl)ethynyl)pyridin-3-yl)-10,10-dimethyl-5,7-dioxo-6^1,6^2,6^3,6^4,6^5,6^6-hexahydro-1^1H-8-oxa-2(4,2)-thiazola-1(5,3)-indola-6(1,3)-pyridazinacycloundecaphane-4-yl)-2-methylcyclopropane-1-carboxamide [Example 29]”: the IC50 turned out to be 1.2 nM in test [1] and 2.8 nM in test [2].

With “(1r,2R,3S)-N-((6^3S,4S,Z)-1^1-ethyl-1^2-(5-(3-((R)-3-(hydroxymethyl)morpholino)prop-1-yn-1-yl)-2-((S)-1-methoxyethyl)pyridin-3-yl)-10,10-dimethyl-5,7-dioxo-6^1,6^2,6^3,6^4,6^5,6^6-hexahydro-1^1H-8-oxa-2(4,2)-thiazola-1(5,3)-indola-6(1,3)-pyridazinacycloundecaphane-4-yl)-2,3-dimethylcyclopropane-1-carboxamide [Example 38]”, the IC50 in test [1] was determined as 0.07 nM; in test [2] it was 0.18 nM.

On to “(1r,2R,3S)-N-((6^3S,4S,Z)-1^1-ethyl-1^2-(5-(3-((S)-hexahydropyrazino[2,1-c][1,4]oxazin-8(1H)-yl)prop-1-yn-1-yl)-2-((S)-1-methoxyethyl)pyridin-3-yl)-10,10-dimethyl-5,7-dioxo-6^1,6^2,6^3,6^4,6^5,6^6-hexahydro-1^1H-8-oxa-2(4,2)-thiazola-1(5,3)-indola-6(1,3)-pyridazinacycloundecaphane-4-yl)-2,3-dimethylcyclopropane-1-carboxamide [Example 40]”, for which the IC50 in test [1] came to 1.35 nM; in test [2] it was 1.5 nM.

Turning to “(1r,2R,3S)-N-((6^3S,4S,Z)-12-(5-(3-((S)-3-(ethoxymethyl)morpholino)prop-1-yn-1-yl)-2-((S)-1-methoxyethyl)pyridin-3-yl)-1^1-ethyl-10,10-dimethyl-5,7-dioxo-6^1,6^2,6^3,6^4,6^5,6^6-hexahydro-1^1H-8-oxa-2(4,2)-thiazola-1(5,3)-indola-6(1,3)-pyridazinacycloundecaphane-4-yl)-2,3-dimethylcyclopropane-1-carboxamide [Example 37]”, the IC50 turned out to be 1.01 nM in test [1] and 0.68 nM in test [2].
